Entries after “also recorded” stand apart in the source; their conditions may differ.
Assays:
[1] = biological target: T1, Sirt1 (Homo sapiens, UniProt Q96EB6); experiment: Fluorescent thermal shift assay (FTSA), Sirt1; format: binding
T1 construct: made in house; host or cells: E. coli BL21 Star (DE3)
T1 sequence (Q96EB6 134-747): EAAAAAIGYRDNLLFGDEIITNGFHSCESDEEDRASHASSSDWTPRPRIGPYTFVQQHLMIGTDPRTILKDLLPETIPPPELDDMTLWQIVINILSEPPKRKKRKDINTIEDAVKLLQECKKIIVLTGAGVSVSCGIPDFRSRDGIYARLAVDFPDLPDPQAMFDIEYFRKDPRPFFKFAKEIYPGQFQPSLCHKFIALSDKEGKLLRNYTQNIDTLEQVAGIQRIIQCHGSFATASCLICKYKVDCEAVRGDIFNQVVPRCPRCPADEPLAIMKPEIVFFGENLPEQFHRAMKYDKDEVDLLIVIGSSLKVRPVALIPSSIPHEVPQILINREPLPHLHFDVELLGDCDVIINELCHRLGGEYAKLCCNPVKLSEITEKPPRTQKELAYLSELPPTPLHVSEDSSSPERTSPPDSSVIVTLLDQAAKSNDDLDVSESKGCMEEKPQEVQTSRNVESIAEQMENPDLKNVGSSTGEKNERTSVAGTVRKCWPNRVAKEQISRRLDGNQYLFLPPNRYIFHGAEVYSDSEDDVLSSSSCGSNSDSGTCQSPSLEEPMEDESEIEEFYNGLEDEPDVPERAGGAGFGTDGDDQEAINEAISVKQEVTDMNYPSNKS
Procedure: In a 96-well plate (Hard-Shell® PCR-plates, 96-well, thin-wall, BioRAD, USA) 14 μL Sirt1_134−747 in assay buffer (0.3 mg/mL final assay concentration, 50 mM Tris/HCl, 137 mM NaCl, 2.7 mM KCl, 1 mM MgCL2, pH 8.0) were mixed with 1 μL inhibitor in DMSO (100 μM) or DMSO [final assay concentration 5% (v/v)] as a control and 5 μL SyproOrange (1:100 in assay buffer). The fluorescence intensity was monitored during a constant increase of temperature from 20 to 95°C, 1 K per 20 s, using a real-time-PCR-machine (C1000 TouchTM Thermal Cycler, CFX96TM Real-Time System, BioRAD, USA). Melting temperatures were calculated via GraphPad Prism according to a published procedure ([60]).

[2] = test system: MCF7 cells; experiment: Cell proliferation assay with MCF7 cells; format: cell-based, human; settings: concentrations as for HeLa
Procedure: (§1) 1.5 × 10^4 cells/well were seeded in 24-well plates and grown in DMEM 10% in presence of DMSO, 20 μM EX-527, 12 μM S1th 13, 20 μM S1th 12, or 30 μM S1th 10. The growth media containing the drugs was replaced every 48 h. Cells were collected and counted at the indicated times starting 24 h after seeding (0, 24, 48, 72, 96, and 120 h). The experiment was performed twice in duplicates.

[3] = test system: HeLa cells; experiment: Colony forming assay with HeLa cells; format: cell-based, human; settings: 7–10 days; concentrations as in proliferation assay
Procedure: (§2) For colony assays, 50 cells per well were seeded in 6-well plates and grown in the same conditions with the same drug concentrations as for the proliferation assays. In this case, the growth media containing the drugs was replaced every 48 h. After 7–10 days, when isolated colonies were formed, wells were washed with PBS, and cells were fixed with cold methanol for 5 min at RT. Cells were stained with crystal violet for 10 min at RT and washed with H2O. Images were acquired using iBright (Thermo Fisher Scientific, MA, USA). For quantification, cells of each well were resuspended in 10% glacial acetic acid to dissolve crystal violet whose levels were monitored by measuring absorbance at 590 nm. The experiment was performed in duplicates.

[4] = test system: H3K9ac and p53K382ac in HeLa cells; experiment: Analysis of acetylation status in HeLa cells by western blotting; format: cell-based, human; settings: 48 h, concentrations as in proliferation assay
Procedure: 5 × 10^4 cells were plated in 6-well plates and grown with the conditions and drug concentrations as described for the proliferation assay. Cells were harvested at 48 h and resuspendend in protein loading buffer. After sonication the samples were centrifuged at 14,000 rpm in an Eppendorf microcentrifuge (Eppendorf, DE) and the supernatants were analyzed by western-blot. The following antibodies were used: histone H3 (Cell Signaling #9715), histone H3K9ac (Cell Signaling # C5B11), GAPDH (Cell Signaling #D16H11), p53 (ThermoFisher #PA527822), and p53K382ac (Abcam 75754). Quantification was carried out using imageJ.

[5] = test system: MCF7 cells; experiment: Colony forming assay with MCF7 cells; format: cell-based, human; settings: concentrations as for HeLa
Procedure: as §2

[6] = test system: γH2AX/H2AX levels in MEF cells; experiment: γH2AX level determination by western blot; format: cell-based, mouse
Procedure: Sirt1 WT and KO MEFS cells were treated with 10 μM EX-527, 12 μM S1th 13 (6), 20 μM S1th 12 (5), 30 μM S1th 10 (7) and 30 μM SirReal2 [Sirt2 inhibitor, synthesized according to ([62])] for 48 h. Oxidative stress was induced using 10 μM Camptothecin 2 h. Whole-cell extracts were performed according to the Dignam protocol ([63]). Primary antibodies used for the western blot were anti-H2AX and anti-γH2AX (ab11175 and ab2893 resp., Abcam, UK). Densiometric analysis of the western blots was performed with Quantity One software (Bio-Rad Laboratories, Inc., USA).

[7] = test system: HeLa cells; experiment: Wound healing assay with HeLa cells; format: cell-based, human
Procedure: For wound healing assay 6 × 10^5 cells per well were seeded in 6-well plates and grown for 24 h in DMEM containing 10% FBS. After 24 h, a lineal gap between cells was created in the middle of the plate by scratching the cell monolayer with a 1 mL pipette tip in the same position in each well. Once the scratching is done, plates were washed twice with PBS and then grown in DMEM containing 1% FBS and the drugs in the same concentrations as for the proliferation assay. As described previously, the growth media 1% FBS containing the drugs was replaced every 48 h. Images were acquired in an Optimal microscope (Leica microscopes, DE) using Leica Application Suite X (LAS X) every 24 h (0, 24, 48, and 72 h) until the gap closed. The quantification of the area of the gap at the indicated times was performed with Image J-MRI Wound Healing Tool. The experiment was performed only once.

[8] = test system: HeLa cells; experiment: Cell proliferation assay with HeLa cells; format: cell-based, human; settings: EX-527 20 μM, S1th 13 12 μM, S1th 12 20 μM, S1th 10 30 μM; up to 120 h
Procedure: as §1

NC(=O)C1CCCc2c1[nH]c1ccc(Cl)cc21 (stereo not drawn) [EX-527, reference compound]
effect on Tm of Sirt1 (in words) [1]: barely effected; also recorded: very small shift or no shift at all | cell proliferation of MCF7 cells [2]: only have a mild effect | colony forming of HeLa cells [3]: completely suppressed colony forming | H3K9 acetylation in HeLa cells [4]: no hyperacetylation | p53K382 acetylation in HeLa cells [4]: increased acetylation levels | H3K9 acetylation in HeLa cells ([4]; listed as 1): did not show clear hyperacetylation | colony forming capabilities of MCF7 cells [5]: significantly decreased | γH2AX/H2AX levels without Camptothecin ([6]; 48 h, EX-527 10 μM, S1th 10 30 μM, S1th 12 20 μM, S1th 13 12 μM, SirReal2 30 μM): decreased | γH2AX/H2AX levels after addition of Camptothecin ([6]; Camptothecin 10 μM 2 h, same inhibitor concentrations): strong decrease | migration of HeLa cells (wound healing), 24 h ([7]; 24 h, concentrations as in proliferation assay, performed once): failed to impair migration | wound healing of HeLa cells, 72 h ([7]; 72 h): mild effect on wound healing | cell proliferation of HeLa cells [8]: significantly decreased cell proliferation

From publication PMC7203344, “Sirtuin 1 Inhibiting Thiocyanates (S1th)—A New Class of Isotype Selective Inhibitors of NAD^+ Dependent Lysine Deacetylases” (Frontiers in Oncology, 2020)
